Data on 1 compound can be found in patent publication US4593019A, “N^6 -tricyclic adenosines” (Warner-Lambert Company, priority 1984, dated 1986).

A short description of the experiment: Antihypertensive evaluation (AHP3): direct monitoring of aortic blood pressure and heart rate in conscious rats. Conditions: 10 mg/kg, conscious rat. The format is in vivo. The protocol: This test procedure is described in the following paragraphs.
The continuous monitoring of pulsatile blood pressure (BP) from unrestrained conscious rats surgically equipped with polyethylene cannulas was accomplished by means of a computer assisted data capture scheme (CADCS). The basic elements of the methodology are the cannulation procedure and the CADCS.
Cannulation Procedure: Rats were anesthetized with Telazol (1:1 tiletamine HCl and zolazepam HCl); 20-40 mg/kg IM and the descending aorta exposed via a midline incision. Cannulas fabricated from polyethylene tubing were inserted into the aorta via an undersized puncture hole below the renal arteries. The puncture hole was made by a 23 G disposable needle with a section of the aorta clamped off above and below the puncture site. The cannulas, consisting of a PE100 (0.86 mm ID) body and a PE50 (0.58 mm ID) tip, were attached to a trocar, inserted through the psoas muscle, and passed subcutaneously along the midline of the back and externalized between the ears. The cannulas were anchored to the psoas muscle and between the scalulae (3-0 green braided suture). The midline incision was closed in two steps (muscle first, skin second) using continuous over-and over sutures (4-0 chronic). Each rat was then given penicillin 30,000 units subcutaneously (Penicillin G Procaine Sterile Suspension).
The rats were fitted with a harness-spring-swivel assembly designed to protect the cannula and to provide the rat relative freedom of movement. The harnesses were fabricated from nylon hook and loop tape cemented to a metal plate to which spring wires (18-8 stainless steel), were attached to brass swivels. […] While on test, each rat received a continuous slow infusion of heparinized saline solution (approximately […] or 40 units of heparin per 24 hour period) to prevent clot formation. Additional "flushes" of the cannula with heparinized saline were carried out when the aortic pulse pressure (systolic minus diastolic) was less than 25 mm Hg.
CADCS: The pulsatile blood pressure and heart rate of each of 32 rats was monitored every minute by means of two in-laboratory microcomputers communicating directly with a data concentrator computer. The data were first stored on the data concentrator disk and then transferred to a magnetic tape for analysis and report generation by the main research computer. The overall scheme involved modulating the primary signal from the pressure transducer, generating the primary data set of the one-minute values for systolic, diastolic, and mean blood pressures and heart rate by the in-lab microcomputer and the storage, analysis, and report generation by the main reserach computer.
The transducers were connected to analog signal conditioning modules. The modules provided a regulated excitation voltage for the transducers, amplification as required to interface the microprocessors and an active low pass filter to compensate for the pressure wave form distortion produced by the flexible, fluid filled, narrow cannula.
The microcomputers (one for each of two groups of 16 rats) were connected to the input components through the module interface units, an analog-to-digital converter for the pressure wave form signal and the digital inputs for the dose and event marker switches. The microcomputer controlled the sequential acquisition of data from the modular interface units through an internal synchronous time-of-day clock/time base generator. Utilizing the time base generator as a reference, the blood pressure values and the marker switch status for each of the 32 stations were sampled every ten msec. The microcomputer processed each blood pressure sample as it was received to produce "running average" values for heart rate, and mean, systolic and diastolic blood pressures.

On to `OC[C@H]1O[C@@H](n2cnc3c(NCC4c5ccccc5Oc5ccccc54)ncnc32)[C@H](O)[C@@H]1O` [Example 4, N^6-[Xanthene-9-methylamino]adenosine], for which the “HR ↑ (increase in heart rate)” value (1 hour) was 16%; the “HR ↑ (increase in heart rate)” value (3 hours) is reported as 19%; the “HR ↑ (increase in heart rate)” value (5 hours) worked out at 25%; the “HR ↑ (increase in heart rate)” value (7 hours) is recorded as 15%; the “HR ↑ (increase in heart rate)” value (9 hours) is reported as 18%. For the same compound, the “MAP ↓ (decrease in mean arterial blood pressure)” value reads like this: (1 hour) 11%; (3 hours) 4%; (5 hours) 8%; (7 hours) 12%; (9 hours) 8%.
